Assay results taken from patent US11267812B2 (Mirati Therapeutics, Inc., priority 2016, dated 2022).
pIC50: −log10 of the molar value. Like-named read-outs stand apart in the source and are kept apart here.

Legend:
KRas G12C = KRas G12C (Homo sapiens, UniProt P01116, C118S/C51S/C80L/G12C); assay: KRas G12C Modification Assay (LCMS detection of covalent adduct); assay type: binding; details: 5 μM compound, 3 hours
Description: A 10 μL aliquot of each protein solution was then transferred to a 384 well microtiter plate. Initial compound stocks were generated at fifty times their desired final assay concentration in DMSO.
Exemplary compounds of Formula (I) were diluted 25-fold into K-Ras Assay Buffer to a final of two times their final concentration. A 10 μL aliquot of each diluted compound solution was then added to each of the protein solutions in the microtiter plate to initiate reaction. […] At each time point, the reactions were quenched with 20 μL of a 25 mM acetic acid solution. […] Once all reactions were quenched, the plates were heat sealed and the samples were injected into a LC/MS system for data acquisition.
Samples were injected in their liquid phase onto a C-3 reverse phase column to remove assay buffer and prepare the samples for mass spectrometer. The proteins were eluted from the column using an acetonitrile gradient and fed directly into the mass analyzer. Initial raw data analysis took place in Agilent MassHunter software immediately post data acquisition.
Raw data analysis of the intact protein was exclusively a deconvolution of the multiple charge states of each protein in solution using a maximum entropy deconvolution provided in Mass Hunter. To minimize complexity, only the data over limited mass ranges were considered for analysis, with a minimum of one Dalton mass step intervals. The heights of all masses identified during raw data analysis were exported to be further analyzed in Spotfire® data analysis software.
Final data analysis was a multistep process in the Spotfire® data analysis software package. Briefly, each protein mass was calculated as a percent of the total signal of that sample, that percentage was then normalized to the percentage of signal of the protein in the absence of reactive compounds. Those normalized signals were reported as normalized percent of control (POC). […] Key: “A”≤25% POC; “B”>25% POC≤50% POC; “C”>50% POC and ND=not determined.

[1] = tested on: Phospho-ERK in NCI-H358 cells expressing KRas G12C; assay: Cellular inhibition of KRas G12C by Phospho-ERK measurement in NCI-H358 cells; assay type: cell-based; details: Homo sapiens, read-out: IC50 (pERK(Thr202/Tyr204) normalized with GAPDH)
Method in brief: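 After 8–12 h attachment, NCI-H358 cells were treated with compounds for 3 h (0.5% DMSO final), fixed, methanol-permeabilized and immunostained. pERK(Thr202/Tyr204) was read by infrared imaging and normalized to GAPDH as percent of DMSO control. IC50 came from a 4-parameter fit.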

[2] = NCI-H358 cells, 3 hours compound treatment

Structure (SMILES): C=CC(=O)N1CCN(c2nc(OC[C@]3(C)CCCN3C)nc3c2CCN(c2cccc4ccccc24)C3)CC1CC#N (stereo partly drawn) [Example 251, 2-(1-acryloyl-4-(2-(((S)-1,2-dimethylpyrrolidin-2-yl)methoxy)-7-(naphthalen-1-yl)-5,6,7,8-tetrahydropyrido[3,4-d]pyrimidin-4-yl)piperazin-2-yl)acetonitrile]
- POC (normalized percent of control, KRas G12C modification) (KRas G12C): C (“C”>50% POC)
- pIC50 [1, 2]: 6.00 to 9.00

Structure (SMILES): C=CC(=O)N1CCN(c2nc(OC[C@@H]3CCCN3C)nc3c2CCN(c2cccc4ccc(C)cc24)C3)CC1CC#N (stereo partly drawn) [Example 245, 2-[4-[7-(7-methyl-1-naphthyl)-2-[[(2S)-1-methylpyrrolidin-2-yl]methoxy]-6,8-dihydro-5H-pyrido[3,4-d]pyrimidin-4-yl]-1-prop-2-enoyl-piperazin-2-yl]acetonitrile]
- POC (normalized percent of control, KRas G12C modification) (KRas G12C): C (“C”>50% POC)
- pIC50 [1, 2]: 6.00 to 9.00

Structure (SMILES): C=CC(=O)N1CCN(c2nc(OCCCN3CC4CC4C3)nc3c2CCN(c2cc(O)cc4ccccc24)C3)CC1 (stereo not shown) [Example 206, 1-(4-(2-(3-(3-azabicyclo[3.1.0]hexan-3-yl)propoxy)-7-(3-hydroxynaphthalen-1-yl)-5,6,7,8-tetrahydropyrido[3,4-d]pyrimidin-4-yl)piperazin-1-yl)prop-2-en-1-one]
- POC (normalized percent of control, KRas G12C modification) (KRas G12C): C (“C”>50% POC)
- pIC50 [1, 2]: 6.00 to 9.00

Structure (SMILES): C=CC(=O)N1CCN(c2nc(OC[C@@H]3CCCN3C)nc3c2CCN(c2cccc4ccncc24)C3)CC1CC#N (stereo partly drawn) [Example 244, 2-[4-[7-(8-isoquinolyl)-2-[[(2S)-1-methylpyrrolidin-2-yl]methoxy]-6,8-dihydro-5H-pyrido[3,4-d]pyrimidin-4-yl]-1-prop-2-enoyl-piperazin-2-yl]acetonitrile]
- POC (normalized percent of control, KRas G12C modification) (KRas G12C): C (“C”>50% POC)
- pIC50 [1, 2]: 6.00 to 9.00

Structure (SMILES): C=CC(=O)N1CCN(c2nc(OC[C@@H]3CCCN3C)nc3c2CCN(c2cccc4ccccc24)C3)CC1CC#N (stereo partly drawn) [Example 147, 2-[4-[2-[[(2S)-1-methylpyrrolidin-2-yl]methoxy]-7-(1-naphthyl)-6,8-dihydro-5H-pyrido[3,4-d]pyrimidin-4-yl]-1-prop-2-enoyl-piperazin-2-yl]acetonitrile]
- POC (normalized percent of control, KRas G12C modification) (KRas G12C): C (“C”>50% POC)
- pIC50 ([1]; NCI-H358, 3 h): 6.00 to 9.00
